The text below walks through data of publication PMC11475281, “A Novel Liver Cancer-Selective Histone Deacetylase Inhibitor Is Effective against Hepatocellular Carcinoma and Induces Durable Responses with Immunotherapy” (ACS Pharmacology & Translational Science, 2024).

Where two headings read alike, the source gives them in different places.

Experiment [1] deals with VERO (a normal kidney epithelial cell). Briefly: MTS cell viability assay, 72 h. The class given is cell-based. The following applies: Table S2, read-out: Anti-proliferation IC50 VERO. The source says:
(§1) We then screened STR-V-53 and all the synthesized glycosylated HDACi for their effects on the viability of three cell lines: A549 (lung adenocarcinoma), Hep-G2 (HCC), and VERO (a normal kidney epithelial cell). We used SORA and STR-V-48, a previously disclosed nonglycosylated compound, as controls.[25] […] Additionally, compound STR-V-167, the peracetylated analog of STR-V-53, largely retained the Hep-G2 selectivity of STR-V-53 (Table S2). Subsequently, we evaluated the effects of STR-V-53 on cell proliferation using a panel of human HCC cell lines (Huh-7, SK-Hep-1, and Hep3B) as well as Kupffer cells (liver resident macrophages) by MTS assay. We observed that STR-V-53 is 7- to 16-fold more cytotoxic against these HCC cell lines relative to the Kupffer cells (Figure 1g). […] Based on their weak HDAC and cell proliferation inhibition activities, we de-emphasized further evaluation of the class III compounds.
(§2) 10-017-CV), supplemented with 10% fetal bovine serum (FBS) (Corning, 35-010-CV). Hep-G2 cells were cultured in phenol red-free Minimum Essential Medium (MEM) (Corning, 17-305-CV), supplemented with 10% fetal bovine serum (FBS). SK-Hep-1 in ATCC-formulated EMEM (ATCC® 30–2003™); Huh-7 in DMEM (containing 4 mM L-glutamine and 1 g/L glucose) with […]
(§3) Kupffer Cell Media (Sekisui XenoTech, LLC, Cat. #K8700). Cells were seeded into a 96-well plate (2000 counts/100uL) for 24 h prior to treatment and then treated with various drug concentrations for 72 h. All drugs were dissolved in media with DMSO concentration maintained at 1%. The effect of compounds on cell viability was measured using the MTS assay (CellTiter 96 Aqueous One Solution and CellTiter 96 Non-Radioactive Cell Proliferation Assays, Promega, Madison, WI) as described by the manufacturer. IC50s were determined using Prism GraphPad 8. […]
In general terms: Tetrazolium dyes change colour on reduction, which living cells bring about.

For experiment [2], the system named is A549 (lung adenocarcinoma). Briefly: MTS cell viability assay, 72 h. The class given is cell-based. The following applies: Table S2, read-out: Anti-proliferation IC50 A549.
Text: as §1, §2, §3

Another experiment deals with Hep-G2 (HCC). Briefly: MTS cell viability assay, 72 h. The class given is cell-based, human. The following applies: for IC50: Table S2, read-out: Anti-proliferation IC50 Hep-G2; for Hep-G2-selectivity (VERO/Hep-G2): ratio of VERO to Hep-G2 cytotoxicity.
Text: as §1, §2, §3

A further experiment addresses T1, HDAC6 (Homo sapiens, UniProt Q9UBN7).
T1 sequence (Q9UBN7 1-1215): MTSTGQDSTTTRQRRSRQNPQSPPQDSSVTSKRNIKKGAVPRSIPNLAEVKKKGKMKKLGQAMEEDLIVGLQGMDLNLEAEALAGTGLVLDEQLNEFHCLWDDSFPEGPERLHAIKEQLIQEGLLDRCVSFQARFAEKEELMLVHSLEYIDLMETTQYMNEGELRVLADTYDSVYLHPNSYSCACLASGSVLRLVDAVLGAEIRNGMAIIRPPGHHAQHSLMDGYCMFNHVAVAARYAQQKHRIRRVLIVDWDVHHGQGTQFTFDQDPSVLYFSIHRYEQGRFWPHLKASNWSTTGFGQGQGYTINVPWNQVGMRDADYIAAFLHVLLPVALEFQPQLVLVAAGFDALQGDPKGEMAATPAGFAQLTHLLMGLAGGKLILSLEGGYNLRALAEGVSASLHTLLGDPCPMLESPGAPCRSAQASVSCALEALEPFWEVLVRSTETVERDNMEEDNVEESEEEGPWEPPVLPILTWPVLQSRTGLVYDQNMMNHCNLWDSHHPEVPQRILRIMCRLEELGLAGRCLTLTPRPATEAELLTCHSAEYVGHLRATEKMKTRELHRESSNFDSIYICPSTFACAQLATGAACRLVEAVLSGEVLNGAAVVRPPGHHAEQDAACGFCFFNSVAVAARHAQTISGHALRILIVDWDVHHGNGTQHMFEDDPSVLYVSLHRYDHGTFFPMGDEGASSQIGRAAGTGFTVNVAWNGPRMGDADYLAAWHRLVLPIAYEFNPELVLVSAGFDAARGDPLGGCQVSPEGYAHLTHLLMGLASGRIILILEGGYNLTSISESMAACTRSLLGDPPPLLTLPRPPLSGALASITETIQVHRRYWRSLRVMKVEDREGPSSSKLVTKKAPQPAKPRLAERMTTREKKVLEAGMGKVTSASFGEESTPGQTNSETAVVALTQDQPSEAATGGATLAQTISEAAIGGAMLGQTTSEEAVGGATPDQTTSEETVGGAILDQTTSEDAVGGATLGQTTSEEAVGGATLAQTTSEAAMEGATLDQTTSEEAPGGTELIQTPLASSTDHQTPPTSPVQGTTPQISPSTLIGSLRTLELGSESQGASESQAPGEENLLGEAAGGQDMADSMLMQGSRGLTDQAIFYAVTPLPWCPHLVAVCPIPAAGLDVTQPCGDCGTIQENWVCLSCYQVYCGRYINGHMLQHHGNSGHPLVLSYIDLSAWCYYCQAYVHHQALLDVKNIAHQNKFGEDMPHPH
The experiment can be described thus: HDAC isoform inhibition (BPS Bioscience). The following applies: read-out: HDAC6 IC50; Table S1.

A further experiment concerns the target T2, HDAC8 (Homo sapiens, UniProt Q9BY41).
T2 sequence (Q9BY41 1-377): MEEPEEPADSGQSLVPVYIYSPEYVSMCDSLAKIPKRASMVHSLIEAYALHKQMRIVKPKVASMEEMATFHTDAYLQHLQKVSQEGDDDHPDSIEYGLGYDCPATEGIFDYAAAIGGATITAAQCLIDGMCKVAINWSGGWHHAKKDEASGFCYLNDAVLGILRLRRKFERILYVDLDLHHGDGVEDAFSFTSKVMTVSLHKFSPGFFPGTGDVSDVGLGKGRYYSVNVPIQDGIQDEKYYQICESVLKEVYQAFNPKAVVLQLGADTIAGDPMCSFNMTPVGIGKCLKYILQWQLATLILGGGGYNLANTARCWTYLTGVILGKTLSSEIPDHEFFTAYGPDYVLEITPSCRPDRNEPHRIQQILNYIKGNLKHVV
The experiment can be described thus: HDAC isoform inhibition (BPS Bioscience). The following applies: read-out: HDAC8 IC50; Table S1.

The target of the next experiment is HDAC1 (Homo sapiens, UniProt Q13547). Briefly: HDAC isoform inhibition (BPS Bioscience). The following applies: read-out: HDAC1 IC50; Table S1.
In the next experiment the target is HDAC2 (Homo sapiens, UniProt Q92769). The experiment can be described thus: HDAC isoform inhibition (BPS Bioscience). The following applies: read-out: HDAC2 IC50; Table S1.
A further experiment concerns HCC. Also noted: method as in PMID 22915658. The following applies: HCC patients on belinostat treatment, NCT00321594; cited from earlier work.

Chain of HDAC1 (Q13547 whole entry, canonical isoform): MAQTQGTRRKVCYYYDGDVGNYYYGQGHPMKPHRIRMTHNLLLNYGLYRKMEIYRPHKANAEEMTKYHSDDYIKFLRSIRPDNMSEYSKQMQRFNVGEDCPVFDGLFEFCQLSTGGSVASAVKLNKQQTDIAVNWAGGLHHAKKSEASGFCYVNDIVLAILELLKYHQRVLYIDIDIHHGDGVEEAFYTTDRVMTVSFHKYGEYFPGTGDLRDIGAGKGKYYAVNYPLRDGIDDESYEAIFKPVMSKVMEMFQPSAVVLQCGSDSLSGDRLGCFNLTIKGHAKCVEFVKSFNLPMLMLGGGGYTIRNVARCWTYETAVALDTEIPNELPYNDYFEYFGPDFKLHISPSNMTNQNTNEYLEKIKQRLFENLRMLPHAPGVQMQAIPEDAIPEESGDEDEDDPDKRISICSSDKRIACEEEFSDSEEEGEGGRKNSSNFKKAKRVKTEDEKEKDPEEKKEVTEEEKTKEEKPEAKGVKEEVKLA
Chain of HDAC2 (Q92769 whole entry, canonical isoform): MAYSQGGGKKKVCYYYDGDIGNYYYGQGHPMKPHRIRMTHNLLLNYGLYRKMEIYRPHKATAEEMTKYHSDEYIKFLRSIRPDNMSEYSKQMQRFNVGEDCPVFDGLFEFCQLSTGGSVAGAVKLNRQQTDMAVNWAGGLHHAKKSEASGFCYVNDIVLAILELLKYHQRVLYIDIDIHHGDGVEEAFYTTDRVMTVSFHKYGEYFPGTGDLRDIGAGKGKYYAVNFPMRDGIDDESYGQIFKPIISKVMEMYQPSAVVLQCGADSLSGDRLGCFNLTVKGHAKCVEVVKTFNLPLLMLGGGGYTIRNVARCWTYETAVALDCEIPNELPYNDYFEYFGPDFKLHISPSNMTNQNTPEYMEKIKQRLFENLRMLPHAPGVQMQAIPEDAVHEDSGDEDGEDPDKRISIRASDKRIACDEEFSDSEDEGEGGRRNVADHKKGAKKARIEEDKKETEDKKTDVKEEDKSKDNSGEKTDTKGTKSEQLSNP

On to `CNC(=O)c1cc(Oc2ccc(NC(=O)Nc3ccc(Cl)c(C(F)(F)F)c3)cc2)ccn1` [SORA, sorafenib, reference compound], for which the IC50 in experiment [1] (Chlorocebus sabaeus, Vero) was 12200 ± 100 nM; in experiment [2] (Homo sapiens, A549) it was 18100 ± 2900 nM; in the experiment on Hep-G2 (HCC) (Homo sapiens, HepG2), 3700 ± 400 nM. In the experiment with Hep-G2 (HCC), the “Hep-G2-selectivity (VERO/Hep-G2)” value is reported as “about three times more cytotoxic”.
`O=C(CCCCCCn1cc(-c2ccc3cc(O[C@@H]4O[C@H](CO)[C@@H](O)[C@H](O)[C@H]4O)ccc3c2)nn1)NO` [STR-II-36]: the IC50 in experiment [1] was 33600 ± 5500 nM; in experiment [2] it was 20100 ± 1100 nM; on HDAC6 it was 0.72 nM; with Hep-G2 (HCC), 7500 ± 800 nM; on HDAC8, 319 nM; on HDAC1 it was 3.28 nM. The IC50 on HDAC2 is 10.4 nM.
For the molecule `COc1ccc2cc(-c3cn(CCCCCCC(=O)NO)nn3)ccc2c1` [STR-V-48, N-hydroxy-7-(4-(6-methoxynaphthalen-2-yl)-1H-1,2,3-triazol-1-yl)heptanamide, reference compound], the IC50 in experiment [1] (Chlorocebus sabaeus, Vero) stood at 200 ± 50 nM; in experiment [2] (Homo sapiens, A549), 1400 ± 200 nM; with Hep-G2 (HCC) (Homo sapiens, HepG2) it was 400 ± 40 nM.
Take `CC(=O)O[C@H]1[C@H](Oc2ccc(-c3cn(CCCCCCC(=O)NO)nn3)cc2)O[C@H](C)C[C@@H]1N(C)C` [STR-V-165]: the IC50 worked out at 76400 nM in experiment [1]; 33700 ± 1800 nM in experiment [2]; 5.22 nM at HDAC6; 9600 ± 3400 nM with Hep-G2 (HCC); 806 nM at HDAC8; 10.3 nM at HDAC1. Further, the IC50 on HDAC2 came to 27.5 nM. The “Hep-G2-selectivity (VERO/Hep-G2)” value with Hep-G2 (HCC) was 8 fold.
In the case of `CC(=O)OCC1OC(Oc2ccc(-c3cn(CCCCCCC(=O)NO)nn3)cc2)C(OC(C)=O)C(OC(C)=O)C1OC(C)=O` (stereo not shown) [STR-V-167], the IC50 is more than 100000 nM in experiment [1]; more than 100000 nM in experiment [2]; 2.61 nM on HDAC6; 10100 ± 1200 nM in the experiment on Hep-G2 (HCC); 311 nM at HDAC8; 31.8 nM on HDAC1. Besides, the IC50 on HDAC2 was determined as 66.4 nM.
Take `CC(=O)OCC1OC(Oc2ccc(-c3cn(CCCCCCC(=O)NO)nn3)cc2)C(OC(C)=O)C(OC(C)=O)C1OC(C)=O` (stereo not shown) [STR-V-176]: the IC50 in experiment [1] was found to be 77400 ± 5600 nM; in experiment [2], 64700 ± 7000 nM; on HDAC6, 1.05 nM; in the experiment with Hep-G2 (HCC) it was 8000 ± 900 nM; at HDAC8 it was 271 nM; at HDAC1, 1.43 nM. Besides, the IC50 at HDAC2 was determined as 4.2 nM. In addition, the “Hep-G2-selectivity (VERO/Hep-G2)” value in the experiment on Hep-G2 (HCC) amounted to 10 fold.
In the case of `CC(=O)OCC1OC(Oc2ccc3cc(-c4cn(CCCCCCC(=O)NO)nn4)ccc3c2)C(OC(C)=O)C(OC(C)=O)C1OC(C)=O` (stereo not shown) [STR-V-177], the IC50 in experiment [1] worked out at 19200 ± 900 nM; in experiment [2], 39600 ± 600 nM; on HDAC6, 1.65 nM; with Hep-G2 (HCC), 7400 ± 900 nM; on HDAC8, 718 nM; on HDAC1, 2.2 nM. Moreover, the IC50 on HDAC2 came out at 13.2 nM.
In the case of `O=C(/C=C/c1cccc(S(=O)(=O)Nc2ccccc2)c1)NO` [belinostat], in the experiment on HCC, the “Median overall survival (OS)” value is 6.60 months and the “Median progression-free survival (PFS)” value is reported as 2.64 months.
